Reference: patent publication US10568925B2, “Extracts of Curcuma amada and uses thereof” (DHARMA BIOMEDICAL, LLC, priority 2015, dated 2020)
Like-named read-outs stand apart in the source and are kept apart here. Values belong to the compound of their own block, whether it stands above or below them.

Assays:
[1] = system: U-87MG human glioblastoma cell line; assay: MTT cytotoxicity in U-87MG glioblastoma cells; format: cell-based; details: 72 hours
Description: Human glioblastoma cell line (U-87MG) was purchased from American Type Culture Collection, Manassas, Va. and the cells were grown in RPMI medium supplemented with 10% fetal bovine serum (FBS) and antibiotics in a humidified 5% CO2 incubator maintained at 37° C. The normal mouse embryonic hypothalamus cell line (mHypoE-N1) was purchased from CELLutions Biosystems, Inc, Burlington, Ontario, Canada and was grown in DMEM, supplemented with 10% FBS and antibiotics in the CO2 incubator.
Glioblastoma (U-87MG) cells were treated with increasing concentrations of CA, temozolomide, etoposide or their combination for 72 hours in 96-well plates. MTT [3-(4,5-Dimethyl thiazol-2-yl)-2,5-diphenyltetrazolium bromide] assay performed with the Cell Proliferation Kit I (Roche Biochemicals, IN) was used to analyze cytotoxicity of individual drugs/extracts and their combinations. The experiments were repeated four times with three replications for each treatment and the IC50, IC75 and IC90 values were calculated (Ramachandran et al. 2010; Ramachandran et al. 2012). The relative cytotoxicity of CA in normal mouse hypothalamus cell line (mHypoE-N1) was also analyzed to compare the toxicity and specificity of CA in normal and brain tumor cells.
Mean inhibitory concentrations (ICs) and standard deviation estimates were calculated using Microsoft Excel software using data from three separate experiments. The fraction of surviving cells at each concentration of drugs/combinations was used for the analysis of synergism/additiveness/antagonism between drugs/extracts by the CompuSyn software (ComboSyn, Inc., Paramus, N.J.).

[2] = system: U-87MG nude mice xenografts; assay: Glioblastoma xenograft study; format: in vivo; details: vs olive oil control; IR 50 mg/kg intraperitoneally, CA (50/mg) gavage; p<0.05
Description: FIG. 16: Inhibition of tumor growth rate in U-87MG xenografts treated with olive oil (control), irinotecan (IR), CA, and IR+CA in combination. Xenografts (n=15/group) were administered intraperitoneally with olive oil (control) or IR (50 mg/kg), whereas CA (50/mg) was given gavage (introduction directly to the stomach). Tumor measurements are recorded twice per week and mean±SD estimates of tumor growth rate are plotted against days after treatment (*p<0.05; **p<0.01, ***p<0.001 as compared to control).
FIG. 17: Kaplan-Meier survival curve analysis of glioblastoma (U-87MG) nude mice xenografts treated with olive oil control, IR, CA, and IR+CA. The difference between treatment groups are significant (*p<0.05).

[3] = system: aRMS (SJRH30) nude mice xenografts; assay: Rhabdomyosarcoma xenograft study; format: in vivo
Description: Male athymic nude (nu/nu) mice of the NCrNUstrain (4 weeks old weighing 18-22 g) were purchased from Taconic Labs, German Town, N.Y. Tissue cultured SJRH30 aRMS cells (10^7 cells/site) in 0.1 ml of Hank's balanced salt solution were injected subcutaneously into the left and right flank of the nude mice with a 21-guage needle. When the tumors measured 0.5 cm^3, therapy was started with 20 mice in each group. Treatment groups included control (saline), 2 mg/kg VBL, 10 mg/kg CA and 2 mg/kg VBL+10 mg/kg CA. VBL was dissolved in saline and administered intraperitoneally on alternate days for a total of 10 injections starting on the first day of tumor measurement and treatment. CA was initially dissolved in ethanol and diluted in water so as to make 0.1% alcohol in it and given as drinking water for the entire duration of the study. Tumor size (length×width), body weight and survival data were collected twice a week. Tumor measurements were recorded using a vernier caliper and tumor volume and tumor growth rates were calculated according to the formula described earlier (Ramachandran et al. 2003; 2006). Tumor growth rate data was analyzed by one-way analysis of variance (ANOVA) with Dunnett's multiple comparison test. Survival data was analyzed with Kaplan Meier statistics using Graphpad Prism software and significant differences among treatment groups were calculated.

RD cell line = assay: RT-PCR gene expression, RD; format: cell-based, human; details: 72 h
Description: (§1) FIGS. 20A-20B: Gene expression analysis of apoptotic genes (p53, Bcl-2, Bax and Bak) by RT-PCR in eRMS RD (FIG. 20A) and aRMS SJRH30 (FIG. 20B) cells treated with VBL, CP, CA and their combinations. Total RNA was extracted from cells treated with drugs and their combinations for 72 h and RT-PCR assay performed with 5 μg of RNA using gene specific primers. The house keeping gene GAPDH is also amplified as control.
(§2) mRNA expression of apoptosis-associated genes (Bax, Bcl-2, Bak and p53) and inflammation-associated genes (Cox-2, NF-κB and STATS) were analyzed by reverse transcriptase-polymerase chain reaction (Ramachandran et al. 2012). The expression of a house keeping gene, Glyceraldehyde 3-phosphate dehydrogenase (GAPDH) was used as a control. The relative expression of genes was quantified using gel pictures by the UNSCAN-IT GEL′ software (Silk Scientific, Inc., Orem, Utah). Since the ratios of Bax/Bcl-2, Bak/Bcl-2 and Bax/Bak expression were very much associated with the fate of cells undergoing apoptosis, these estimates were calculated and plotted against drug concentrations (Ramachandran et al. 2012).

[4] = system: alveolar (SJRH30) rhabdomyosarcoma cell line; assay: MTT cytotoxicity in alveolar rhabdomyosarcoma cells; format: cell-based, human; details: for IC50 / IC90: Homo sapiens
Description: (§3) Both aRMS (SJRH30) and eRMS (RD) cell lines were purchased from American Type Culture Collection, Manassas, Va. SJRH30 and RD cells were grown in Rosewell Park Memorial Institute 1640 (RPMI 1640) and Dulbecco's Modified Eagle's medium (DMEM), respectively, supplemented with 10% FBS and antibiotics in a 5% CO2 incubator.
(§4) Rhabdomyosarcoma cells were treated with increasing concentrations of drugs and/or extracts for 72 hours in 96-well plates. MTT assay performed with the Cell Proliferation kit I (Roche Biochemicals, IN) was used to analyze cytotoxicity of individual drugs, extracts and their combinations (Ramachandran et al. 2012).
(§5) Mean inhibitory concentrations (ICs) and standard deviation estimates were calculated using Microsoft Excel software. The fraction of surviving cells at each concentration of drugs/combinations was used for the analysis of synergism/additiveness/antagonism between drugs/extracts by the CompuSyn software (ComboSyn, Inc., Paramus, N.J.). Synergism was evaluated by the Combination Index (CI) method of Chou and Talalay (1983) which is based on the median-effect principle. The CIs were calculated by the Chou-Talalay equations for multiple drug effects which take into account both potency (IC values) and shape (slope, m) of dose-effect curve (Ramachandran et al. 2010).

[5] = system: embryonal (RD) rhabdomyosarcoma cell line; assay: MTT cytotoxicity in embryonal rhabdomyosarcoma cells; format: cell-based, human; details: for IC50 / IC90: Homo sapiens, Rhabdomyosarcoma cell
Description: as §3, §4, §5

SJRH30 cell line = assay: RT-PCR gene expression, SJRH30; format: cell-based, human; details: SJRH30, 72 h
Description: as §1, §2

SMILES: COc1cc(/C=C/C(=O)CC(=O)/C=C/c2ccc(O)c(OC)c2)ccc1O [CUR, curcumin]
IC75 [1]: 51.00 ± 7.07 µg/mL
IC90 [1]: >200 µg/mL
IC75 ([1]; listed as curcumin): 51.00 ± 7.07 µg/mL
IC50 ([1]; Homo sapiens): 37.3 ± 4.04 µg/mL
IC90 ([1]; Homo sapiens, read-out: IC90): > 200 µg/mL

SMILES: CCc1c2c(nc3ccc(OC(=O)N4CCC(N5CCCCC5)CC4)cc13)-c1cc3c(c(=O)n1C2)COC(=O)[C@]3(O)CC [IR, irinotecan]
tumor growth rate [2]: significantly inhibited

SMILES: COc1cc([C@@H]2c3cc4c(cc3[C@@H](O[C@@H]3O[C@@H]5CO[C@@H](C)O[C@H]5[C@H](O)[C@H]3O)[C@H]3COC(=O)[C@H]23)OCO4)cc(OC)c1O [ETP, etoposide]
IC75 [1]: 127.50 ± 3.53 µg/mL
IC50 ([1]; Homo sapiens): 6.5 ± 2.54 µg/mL
IC90 ([1]; Homo sapiens, read-out: IC90): > 200 µg/mL

SMILES: Cn1nnc2c(C(N)=O)ncn2c1=O [TMZ, temozolomide]
IC75 [1]: >200 µg/mL
IC50 ([1]; Homo sapiens): 176 ± 10.5 µg/mL
IC90 ([1]; Homo sapiens, read-out: IC90): > 200 µg/mL

weight gain of xenografts / overall weight loss ([3]; mouse, in vivo): absence of any overall weight loss
SMILES: CC[C@]1(O)C[C@@H]2CN(CCc3c([nH]c4ccccc34)[C@@](C(=O)OC)(c3cc4c(cc3OC)N(C)[C@H]3[C@@](O)(C(=O)OC)[C@H](OC(C)=O)[C@]5(CC)C=CCN6CC[C@]43[C@@H]65)C2)C1 [Vinblastine (VBL), Vinblastine]
tumor growth rate ([3]; vs saline control, VBL 2 mg/kg intraperitoneally, CA 10 mg/kg in drinking water, p<0.001 by ANOVA): significantly inhibited
expression of Bcl-2 (RD cell line): decrease
expression of p53, Bax and Bak (RD cell line): increase
IC50 ([4]; SJRH30, 72 hours, MTT, read-out: IC50): 0.191 ± 0.01 µg/mL
IC90 ([4]; SJRH30, 72 hours, MTT, read-out: IC90): > 200 µg/mL
IC75 ([4]; SJRH30, 72 hours, MTT): 36.110 ± 2.970 µg/mL
IC50 ([5]; RD, 72 hours, MTT, read-out: IC50): 0.01 ± 0.002 µg/mL
IC90 ([5]; RD, 72 hours, MTT, read-out: IC90): > 200 µg/mL
IC75 ([5]; RD, 72 hours, MTT): 0.200 ± 0.010 µg/mL
expression of Bcl-2 (SJRH30 cell line): decrease
expression of p53, Bax and Bak (SJRH30 cell line): increase

SMILES: O=P1(N(CCCl)CCCl)NCCCO1 (centres unmarked) [Cyclophosphamide (CP), Cyclophosphamide]
expression of Bcl-2 (RD cell line): decrease
expression of p53, Bax and Bak (RD cell line): increase
cell death ([4]; 200 μg/ml dose, aRMS cells): 45%
IC50 ([4]; SJRH30, 72 h): > 200 µg/mL
IC90 ([4]; SJRH30, 72 h): > 200 µg/mL
IC75 ([4]; SJRH30, 72 hours, MTT): >200 µg/mL
IC50 ([5]; 72 h): 172 ± 8.53 µg/mL
IC90 ([5]; 72 h): > 200 µg/mL
IC75 ([5]; RD, 72 hours, MTT): >200 µg/mL
expression of Bcl-2 (SJRH30 cell line): decrease
expression of p53, Bax and Bak (SJRH30 cell line): increase
